Measurements taken from PubChem BioAssay (NCI).
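Interpolation was linear, between the two tested concentrations surrounding the appropriate level; five concentrations were tested over 48 hours in 96-well plates. Here, GI50 denotes the concentration required for 50% inhibition of growth. TGI denotes the concentration required for complete inhibition of growth.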

Columns and labels:
Assay in all cases: NCI tumour cell line growth inhibition, 48 h
HCT-15 colon = tested on: HCT-15 colon
MOLT-4 leukemia = tested on: MOLT-4 leukemia
PC-3 prostate = tested on: PC-3 prostate
SF-295 CNS = tested on: SF-295 CNS
UACC-62 melanoma = tested on: UACC-62 melanoma
SK-MEL-5 melanoma = tested on: SK-MEL-5 melanoma
RXF 393 renal = tested on: RXF 393 renal
LOX IMVI melanoma = tested on: LOX IMVI melanoma
TK-10 renal = tested on: TK-10 renal
SF-268 CNS = tested on: SF-268 CNS
MALME-3M melanoma = tested on: MALME-3M melanoma
T-47D breast = tested on: T-47D breast
SW-620 colon = tested on: SW-620 colon
HOP-62 NSCLC = tested on: HOP-62 NSCLC
SN12C renal = tested on: SN12C renal
MDA-MB-231 breast = tested on: MDA-MB-231 breast
KM12 colon = tested on: KM12 colon
MDA-N = tested on: MDA-N
SK-MEL-28 melanoma = tested on: SK-MEL-28 melanoma
M14 melanoma = tested on: M14 melanoma
RPMI-8226 leukemia = tested on: RPMI-8226 leukemia
HL-60(TB) leukemia = tested on: HL-60(TB) leukemia
HCC-2998 colon = tested on: HCC-2998 colon
NCI-H23 lung = tested on: NCI-H23 lung
UACC-257 melanoma = tested on: UACC-257 melanoma
MCF7 breast = tested on: MCF7 breast
SR leukemia = tested on: SR leukemia
SK-OV-3 ovarian = tested on: SK-OV-3 ovarian
786-0 renal = tested on: 786-0 renal
OVCAR-8 ovarian = tested on: OVCAR-8 ovarian
COLO 205 colon = tested on: COLO 205 colon
EKVX NSCLC = tested on: EKVX NSCLC
CAKI-1 renal = tested on: CAKI-1 renal
HT29 colon = tested on: HT29 colon
SNB-75 CNS = tested on: SNB-75 CNS
K-562 leukemia = tested on: K-562 leukemia
A549 NSCLC = tested on: A549 NSCLC
IGROV1 ovarian = tested on: IGROV1 ovarian
CCRF-CEM leukemia = tested on: CCRF-CEM leukemia
DU-145 prostate = tested on: DU-145 prostate
U251 CNS = tested on: U251 CNS
HS 578T breast = tested on: HS 578T breast
HCT-116 colon = tested on: HCT-116 colon
NCI-H226 lung = tested on: NCI-H226 lung
OVCAR-3 ovarian = tested on: OVCAR-3 ovarian
NCI-H522 lung = tested on: NCI-H522 lung
NCI/ADR-RES ovarian = tested on: NCI/ADR-RES ovarian
MDA-MB-435 = tested on: MDA-MB-435
OVCAR-5 ovarian = tested on: OVCAR-5 ovarian
SNB-19 CNS = tested on: SNB-19 CNS
BT-549 breast = tested on: BT-549 breast
ACHN renal = tested on: ACHN renal
UO-31 renal = tested on: UO-31 renal
OVCAR-4 ovarian = tested on: OVCAR-4 ovarian
A498 renal = tested on: A498 renal
SF-539 CNS = tested on: SF-539 CNS
HOP-92 NSCLC = tested on: HOP-92 NSCLC
NCI-H460 lung = tested on: NCI-H460 lung
SK-MEL-2 melanoma = tested on: SK-MEL-2 melanoma

With C=CCc1c(O)c2nsnc2c2nsnc12 the TGI (HCT-15 colon) was > 10 µM, the TGI (MOLT-4 leukemia) was > 10 µM and the TGI (PC-3 prostate) was > 10 µM. For the same compound, the TGI (SF-295 CNS) was > 10 µM, the TGI (UACC-62 melanoma) was > 10 µM and the TGI (SK-MEL-5 melanoma) was > 10 µM. The TGI (RXF 393 renal) was > 10 µM, the TGI (LOX IMVI melanoma) was > 10 µM and the TGI (TK-10 renal) was > 10 µM. For the same compound, the TGI (SF-268 CNS) was > 10 µM, the TGI (MALME-3M melanoma) was > 10 µM and the TGI (T-47D breast) was > 10 µM. For the same compound, the TGI (SW-620 colon) was > 10 µM, the TGI (HOP-62 NSCLC) was > 10 µM and the TGI (SN12C renal) was > 10 µM. For the same compound, the TGI (MDA-MB-231 breast) was > 10 µM, the TGI (KM12 colon) was > 10 µM and the TGI (MDA-N) was > 10 µM. For the same compound, the TGI (SK-MEL-28 melanoma) was > 10 µM, the TGI (M14 melanoma) was > 10 µM and the TGI (RPMI-8226 leukemia) was > 10 µM. The TGI (HL-60(TB) leukemia) was > 10 µM, the TGI (HCC-2998 colon) was > 10 µM and the TGI (NCI-H23 lung) was > 10 µM. The TGI (UACC-257 melanoma) was > 10 µM, the TGI (MCF7 breast) was > 10 µM and the TGI (SR leukemia) was > 10 µM. For the same compound, the TGI (SK-OV-3 ovarian) was > 10 µM, the TGI (786-0 renal) was > 10 µM and the TGI (OVCAR-8 ovarian) was > 10 µM. For the same compound, the TGI (COLO 205 colon) was > 10 µM, the TGI (EKVX NSCLC) was > 10 µM and the TGI (CAKI-1 renal) was > 10 µM. For the same compound, the TGI (HT29 colon) was > 10 µM, the TGI (SNB-75 CNS) was > 10 µM and the TGI (K-562 leukemia) was > 10 µM. The TGI (A549 NSCLC) was > 10 µM, the TGI (IGROV1 ovarian) was > 10 µM and the TGI (CCRF-CEM leukemia) was > 10 µM. For the same compound, the TGI (DU-145 prostate) was > 10 µM.
For COc1cc(C2c3cc4c(cc3C(OC(=O)C[n+]3ccccc3)C3COC(=O)C23)OCO4)cc(OC)c1OC (stereo not given), the GI50 (HCT-15 colon) was < 0.0171 µM, the TGI (HCT-15 colon) was > 100 µM and the GI50 (MOLT-4 leukemia) was < 0.0197 µM. For the same compound, the TGI (MOLT-4 leukemia) was > 100 µM, the GI50 (PC-3 prostate) was < 0.0187 µM and the TGI (PC-3 prostate) was > 100 µM. For the same compound, the GI50 (SF-295 CNS) was < 0.0164 µM, the TGI (SF-295 CNS) was > 100 µM and the GI50 (UACC-62 melanoma) was 10.7 µM. The TGI (UACC-62 melanoma) was > 100 µM, the GI50 (SK-MEL-5 melanoma) was < 0.01 µM and the TGI (SK-MEL-5 melanoma) was < 0.01 µM. For the same compound, the GI50 (RXF 393 renal) was < 0.0191 µM, the TGI (RXF 393 renal) was > 100 µM and the GI50 (LOX IMVI melanoma) was < 0.0179 µM. For the same compound, the TGI (LOX IMVI melanoma) was > 100 µM, the GI50 (U251 CNS) was < 0.021 µM and the TGI (U251 CNS) was > 100 µM. For the same compound, the GI50 (HS 578T breast) was < 0.0241 µM, the TGI (HS 578T breast) was > 100 µM and the GI50 (HCT-116 colon) was < 0.0181 µM. For the same compound, the TGI (HCT-116 colon) was > 100 µM, the GI50 (TK-10 renal) was > 100 µM and the TGI (TK-10 renal) was > 100 µM. The GI50 (SF-268 CNS) was < 0.0208 µM, the TGI (SF-268 CNS) was > 100 µM and the GI50 (MALME-3M melanoma) was > 100 µM. The TGI (MALME-3M melanoma) was > 100 µM, the GI50 (T-47D breast) was 41.2 µM and the TGI (T-47D breast) was > 100 µM. For the same compound, the GI50 (SW-620 colon) was < 0.0203 µM, the TGI (SW-620 colon) was > 100 µM and the GI50 (NCI-H226 lung) was < 0.01 µM. The TGI (NCI-H226 lung) was > 100 µM, the GI50 (HOP-62 NSCLC) was < 0.0259 µM and the TGI (HOP-62 NSCLC) was > 100 µM. For the same compound, the GI50 (SN12C renal) was < 0.0247 µM, the TGI (SN12C renal) was > 100 µM and the GI50 (MDA-MB-231 breast) was < 0.0214 µM. The TGI (MDA-MB-231 breast) was > 22.4 µM, the GI50 (OVCAR-3 ovarian) was < 0.016 µM and the TGI (OVCAR-3 ovarian) was < 0.0255 µM. For the same compound, the GI50 (KM12 colon) was < 0.0168 µM, the TGI (KM12 colon) was > 100 µM and the GI50 (NCI-H522 lung) was < 0.01 µM. For the same compound, the TGI (NCI-H522 lung) was < 0.01 µM, the GI50 (NCI/ADR-RES ovarian) was < 0.0169 µM and the TGI (NCI/ADR-RES ovarian) was > 100 µM. For the same compound, the GI50 (SK-MEL-28 melanoma) was 53 µM, the TGI (SK-MEL-28 melanoma) was > 100 µM and the GI50 (M14 melanoma) was < 0.017 µM. For the same compound, the TGI (M14 melanoma) was > 100 µM, the GI50 (MDA-MB-435) was < 0.01 µM and the TGI (MDA-MB-435) was < 0.01 µM. The GI50 (RPMI-8226 leukemia) was < 0.0203 µM, the TGI (RPMI-8226 leukemia) was > 100 µM and the GI50 (HL-60(TB) leukemia) was < 0.0156 µM. For the same compound, the TGI (HL-60(TB) leukemia) was < 0.0287 µM, the GI50 (HCC-2998 colon) was < 0.0174 µM and the TGI (HCC-2998 colon) was > 20.9 µM. For the same compound, the GI50 (NCI-H23 lung) was < 0.0217 µM, the TGI (NCI-H23 lung) was > 100 µM and the TGI (OVCAR-5 ovarian) was > 100 µM. The GI50 (UACC-257 melanoma) was > 100 µM, the TGI (UACC-257 melanoma) was > 100 µM and the GI50 (MCF7 breast) was < 0.014 µM. The TGI (MCF7 breast) was > 100 µM, the GI50 (SR leukemia) was < 0.016 µM and the TGI (SR leukemia) was > 100 µM. The GI50 (SK-OV-3 ovarian) was < 0.0207 µM, the TGI (SK-OV-3 ovarian) was > 100 µM and the GI50 (786-0 renal) was < 0.0183 µM. For the same compound, the TGI (786-0 renal) was > 100 µM, the GI50 (OVCAR-8 ovarian) was < 0.021 µM and the TGI (OVCAR-8 ovarian) was > 100 µM. The GI50 (COLO 205 colon) was < 0.0137 µM, the TGI (COLO 205 colon) was < 0.0203 µM and the GI50 (SNB-19 CNS) was < 0.0265 µM. For the same compound, the TGI (SNB-19 CNS) was > 100 µM, the GI50 (BT-549 breast) was < 0.01 µM and the TGI (BT-549 breast) was > 100 µM. The GI50 (EKVX NSCLC) was 0.436 µM, the TGI (EKVX NSCLC) was > 100 µM and the GI50 (CAKI-1 renal) was < 0.0184 µM. The TGI (CAKI-1 renal) was > 100 µM, the GI50 (ACHN renal) was < 0.0204 µM and the TGI (ACHN renal) was > 100 µM. For the same compound, the GI50 (HT29 colon) was < 0.01 µM, the TGI (HT29 colon) was > 100 µM and the GI50 (SNB-75 CNS) was 1.33 µM. The TGI (SNB-75 CNS) was > 100 µM, the GI50 (K-562 leukemia) was < 0.0173 µM and the TGI (K-562 leukemia) was > 100 µM. The GI50 (UO-31 renal) was < 0.0231 µM, the TGI (UO-31 renal) was > 100 µM and the GI50 (A549 NSCLC) was < 0.0197 µM. The TGI (A549 NSCLC) was > 100 µM, the GI50 (OVCAR-4 ovarian) was < 0.0239 µM and the TGI (OVCAR-4 ovarian) was > 100 µM. For the same compound, the GI50 (A498 renal) was < 0.01 µM, the TGI (A498 renal) was 15.8 µM and the GI50 (IGROV1 ovarian) was < 0.0207 µM. For the same compound, the TGI (IGROV1 ovarian) was > 100 µM, the GI50 (CCRF-CEM leukemia) was < 0.0205 µM and the TGI (CCRF-CEM leukemia) was > 100 µM. The GI50 (SF-539 CNS) was < 0.0154 µM, the TGI (SF-539 CNS) was < 0.0278 µM and the GI50 (HOP-92 NSCLC) was < 0.013 µM. The TGI (HOP-92 NSCLC) was 2.74 µM, the GI50 (NCI-H460 lung) was < 0.0187 µM and the TGI (NCI-H460 lung) was > 100 µM. For the same compound, the GI50 (DU-145 prostate) was < 0.0184 µM, the TGI (DU-145 prostate) was > 100 µM and the GI50 (SK-MEL-2 melanoma) was < 0.01 µM. For the same compound, the TGI (SK-MEL-2 melanoma) was > 100 µM.
